Reference: patent publication US4272437A, “Antibacterial agents, and 4-thio azetidinone intermediates” (priority 1979, dated 1981)
≈ marks a conversion by molar mass, not a printed value. Read-outs that look alike come from different tables or passages of the source.

Tests used:
S. aureus A9537 = experiment: In vivo protection of mice, lethal infection with S. aureus A9537; details: Staphylococcus aureus, A9537, im, IM, 2 treatments, read-out: PD50
Method: Representative compounds of the present invention were also tested in vivo in mice and their PD50 (dose of compound in mg/kg required to protect 50% of the treated mice against an otherwise lethal infection of a micro-organism) values determined with respect to the test organisms shown below.

Proteus vulgaris A21559 = experiment: MIC, tube dilution, Proteus vulgaris A21559; assay type: cell-based; details: Proteus vulgaris, A21559, Proteus vulgaris A21559; overnight 37° C.; read-out: Minimum Inhibitory Concentration (M.I.C.)
Source text: (§1) Representative compounds of the present invention were subjected to in vitro antibiotic screening against a variety of microorganisms.

Ser. marcescens A-20019 = experiment: MIC, tube dilution, Serratia marcescens A20019; assay type: cell-based; details: Serratia marcescens, A20019, Serratia marcescens A20019; overnight 37° C.; read-out: Minimum Inhibitory Concentration (M.I.C.)
Source text: as §1

E. coli A-15119 = experiment: MIC, tube dilution, Escherichia coli A15119; assay type: cell-based; details: Escherichia coli, A15119, E. coli A15119; overnight 37° C.; read-out: Minimum Inhibitory Concentration (M.I.C.)
Source text: as §1

Str. pyogenes A-9604 = experiment: MIC, tube dilution, Streptococcus pyogenes A9604; assay type: cell-based; details: overnight 37° C., Nutrient Broth; for MIC: Streptococcus pyogenes, A9604, Str. pyogenes A9604, read-out: Minimum Inhibitory Concentration (M.I.C.)
Source text: as §1

Ent. cloacae A-9659 = experiment: MIC, tube dilution, Enterobacter cloacae A9659; assay type: cell-based; details: Enterobacter cloacae, A9659, Enterobacter cloacae A9659; overnight 37° C.; read-out: Minimum Inhibitory Concentration (M.I.C.)
Source text: as §1

[1] = test system: Staph. aureus (Meth-Res) A-15097; experiment: MIC, tube dilution, Staphylococcus aureus A15097 (Meth-Res); assay type: cell-based; details: overnight 37° C.; for MIC: Staphylococcus aureus
Source text: as §1

[2] = test system: Staph. aureus (Pen-Res) A-9606; experiment: MIC, tube dilution, Staphylococcus aureus A9606 (Pen-Res); assay type: cell-based; details: Staphylococcus aureus, overnight 37° C.
Source text: as §1

Str. faecalis A-20688 = experiment: MIC, tube dilution, Streptococcus faecalis A20688; assay type: cell-based; details: Enterococcus faecalis, A20688, Str. faecalis A20688; overnight 37° C.; read-out: Minimum Inhibitory Concentration (M.I.C.)
Source text: as §1

Proteus rettgeri A21203 = experiment: MIC, tube dilution, Proteus rettgeri A21203; assay type: cell-based; details: Providencia rettgeri, overnight 37° C., read-out: Minimum Inhibitory Concentration (M.I.C.)
Source text: as §1

[3] = test system: Klebsiella species A20468; experiment: MIC, tube dilution, Klebsiella species A20468; assay type: cell-based; details: Klebsiella species (K. pneumoniae) A20468; overnight 37° C.; read-out: Minimum Inhibitory Concentration (M.I.C.)
Source text: as §1

Str. pneumoniae A-9585 = experiment: MIC, tube dilution, Streptococcus pneumoniae A9585; assay type: cell-based; details: overnight 37° C., Nutrient Broth; for MIC: Streptococcus pneumoniae, A9585, Str. pneumoniae A9585, read-out: Minimum Inhibitory Concentration (M.I.C.)
Source text: as §1

K. pneumoniae A-15130 = experiment: MIC, tube dilution, Klebsiella pneumoniae A15130; assay type: cell-based; details: Klebsiella pneumoniae, A15130, K. pneumoniae A15130; overnight 37° C.; read-out: Minimum Inhibitory Concentration (M.I.C.)
Source text: as §1

Staph. aureus A-9537 = experiment: MIC, tube dilution, Staphylococcus aureus A9537; assay type: cell-based; details: overnight 37° C., Nutrient Broth; for MIC: Staphylococcus aureus, A9537, Staph. aureus A9537, read-out: Minimum Inhibitory Concentration (M.I.C.)
Source text: as §1

[4] = test system: Staph. aureus A-9537 and 50% serum; experiment: MIC, tube dilution, Staph. aureus A9537 + 50% serum; assay type: cell-based, Staphylococcus aureus; details: Staphylococcus aureus, overnight 37° C., read-out: Minimum Inhibitory Concentration (M.I.C.)
Source text: as §1

Pr. mirabilis A-9900 = experiment: MIC, tube dilution, Proteus mirabilis A9900; assay type: cell-based; details: Proteus mirabilis, A9900, Proteus mirabilis A9900; overnight 37° C.; read-out: Minimum Inhibitory Concentration (M.I.C.)
Source text: as §1

E. coli A-20341-1 = experiment: MIC, tube dilution, Escherichia coli A20341-1; assay type: cell-based
Source text: as §1

Pr. morganii A-15153 = experiment: MIC, tube dilution, Proteus morganii A15153; assay type: cell-based; details: Morganella morganii, A15153, Proteus morganii A15153; overnight 37° C.; read-out: Minimum Inhibitory Concentration (M.I.C.)
Source text: as §1

Ps. aeruginosa A-21213 = experiment: MIC, tube dilution, Pseudomonas aeruginosa A21213; assay type: cell-based; details: Pseudomonas aeruginosa A21213; overnight 37° C.; read-out: Minimum Inhibitory Concentration (M.I.C.)
Source text: as §1

Pr. vulgaris A-9716 = experiment: MIC, tube dilution, Proteus vulgaris / Proteus mirabilis A9716; assay type: cell-based, Proteus vulgaris (name changed to Proteus mirabilis); details: Proteus vulgaris, overnight 37° C.
Source text: as §1

Ent. cloacae A-9656 = experiment: MIC, tube dilution, Enterobacter cloacae A9656; assay type: cell-based; details: Enterobacter cloacae A9656; overnight 37° C.; read-out: Minimum Inhibitory Concentration (M.I.C.)
Source text: as §1

Ps. aeruginosa A-9843A = experiment: MIC, tube dilution, Pseudomonas aeruginosa A9843A; assay type: cell-based; details: Pseudomonas aeruginosa, A9843A, read-out: Minimum Inhibitory Concentration (M.I.C.), Pseudomonas aeruginosa A9843A; overnight 37° C.
Source text: as §1

[5] = Staph. aureus A9606 (Pen-Res), read-out: Minimum Inhibitory Concentration (M.I.C.)
[6] = A21203, Proteus rettgeri A21203
[7] = read-out: Minimum Inhibitory Concentration (M.I.C.), Staph. aureus A15097 (Meth-Res)
[8] = Escherichia coli, A203411; E. coli A20341-1; overnight 37° C.; read-out: Minimum Inhibitory Concentration (M.I.C.)

Structure (SMILES) | MIC (Ser. marcescens A-20019) [µg/mL] | MIC (E. coli A-15119) [µg/mL] | MIC (Str. pyogenes A-9604) [µg/mL] | MIC (Ent. cloacae A-9659) [µg/mL] | MIC [2, 5] [µg/mL] | MIC (Str. faecalis A-20688) [µg/mL] | MIC (Proteus rettgeri A21203; [6]) [µg/mL] | MIC [3] [µg/mL] | MIC (Str. pneumoniae A-9585) [µg/mL] | MIC (K. pneumoniae A-15130) [µg/mL] | MIC (Staph. aureus A-9537) [µg/mL] | MIC [4] [µg/mL] | MIC (Pr. mirabilis A-9900) [µg/mL] | MIC (Pr. morganii A-15153) [µg/mL] | MIC [1, 7] [µg/mL] | MIC (Ps. aeruginosa A-21213) [µg/mL] | MIC (E. coli A-20341-1; [8]) [µg/mL] | MIC (Ent. cloacae A-9656) [µg/mL] | MIC (Ps. aeruginosa A-9843A) [µg/mL] | other results
C[C@@H](O)[C@H]1C(=O)N2C(C(=O)O)=C(COCCN)S[C@H]12 (relative stereo) [Example 66, (1'R,5R, 6S and 1'S,5S,6R) 6-(1'-Hydroxyethyl)-2-(2-aminoethoxymethyl)penem-3-carboxylic Acid (isomer B)] | – | – | – | – | – | – | – | – | – | – | – | – | – | – | – | – | – | – | – | ED50 (S. aureus A9537; 1.1 × 10^6 organisms): 0.12 mg/kg
NCC1CC1C1=C(C(=O)O)N2C(=O)CC2S1 [Example 79, (1'R,2'S,5S and 1'S,2'R,5S; 1'S,2'R,5R and 1'R,2'S,5S) 2-(trans-2-aminomethyl-1-cyclopropyl)-penem-3-carboxylic acid] | 8 (≈ 33.3 µM) | 4 (≈ 16.6 µM) | 0.03 (≈ 0.125 µM) | 32 (≈ 133 µM) | 0.5 (≈ 2.08 µM) | 16 (≈ 66.6 µM) | 8 (≈ 33.3 µM) | > 63 | 0.016 (≈ 0.0666 µM) | 16 (≈ 66.6 µM) | 0.06 (≈ 0.25 µM) | 0.25 | 8 (≈ 33.3 µM) | 16 (≈ 66.6 µM) | – | – | – | – | – | MIC (Proteus vulgaris A21559): 16 µg/mL (≈ 66.6 µM); ED50 (S. aureus A9537; 8 × 10^5 organisms): 0.8 mg/kg; Minimum Inhibitory Concentration (M.I.C.) ([1]; Staph. aureus A15097 (Meth-Res)): 125 µg/mL; MIC ([1]; Staph. aureus A15097 (Meth-Res), read-out: Minimum Inhibitory Concentration (M.I.C.)): > 63 µg/mL; MIC (E. coli A-20341-1; Escherichia coli, A203411, E. coli A20341-1; overnight 37° C.; read-out: Minimum Inhibitory Concentration (M.I.C.)): 16 µg/mL (≈ 66.6 µM)
O=C([O-])C1=C(Cc2ccccc2)S[C@@H]2CC(=O)N12.[Na+] [Preparation 21, Sodium 2-Benzylpenem-3-carboxylate] | 63 | 4 | – | 63 | – | 32 | – | 125 | – | 125 | – | > 63 | 1 | 4 | 32 | 125 | 125 | 32 | 125 | Minimum Inhibitory Concentration (M.I.C.) (Str. pyogenes A-9604; Str. pyogenes A9604): 8 µg/mL; MIC ([2]; read-out: Minimum Inhibitory Concentration (M.I.C.), Staph. aureus A9606 (Pen-Res)): 1 µg/mL; MIC (Proteus rettgeri A21203; Proteus rettgeri A21203): 4 µg/mL; Minimum Inhibitory Concentration (M.I.C.) (Str. pneumoniae A-9585; Str. pneumoniae A9585): 2 µg/mL; Minimum Inhibitory Concentration (M.I.C.) (Staph. aureus A-9537; Staph. aureus A9537): .06 µg/mL; MIC (Pr. vulgaris A-9716; A9716, read-out: Minimum Inhibitory Concentration (M.I.C.), Proteus vulgaris / Proteus mirabilis A9716): 2 µg/mL
CC(C)(C)CC1=C(C(=O)O)N2C(=O)CC2S1 (stereo not drawn) [Preparation 23, 2-(2',2'-Dimethylpropyl)penem-3-carboxylate] | 125 (≈ 518 µM) | 16 (≈ 66.3 µM) | 0.25 (≈ 1.04 µM) | 125 (≈ 518 µM) | 32 (≈ 133 µM) | > 125 | 32 (≈ 133 µM) | > 125 | 0.25 (≈ 1.04 µM) | 125 (≈ 518 µM) | 0.25 (≈ 1.04 µM) | > 63 | 2 (≈ 8.29 µM) | 63 (≈ 261 µM) | 125 (≈ 518 µM) | > 125 | > 125 | > 125 | > 125 | MIC (Pr. vulgaris A-9716; A9716, Proteus vulgaris / Proteus mirabilis A9716, read-out: Minimum Inhibitory Concentration (M.I.C.)): 4 µg/mL (≈ 16.6 µM)
